The record followed here is ChEMBL document CHEMBL1201862, “PubChem BioAssay data set” (2004).

Among the test systems are BT-549; DU-145; HCC 2998; HCT-116; HCT-15; HOP-92; KM12; MDA-MB-435; MDA-N; OVCAR-4; RPMI-8226; SF-268; SF-295; SK-MEL-2; SK-MEL-5; SNB-75; T47D; UACC-257; UACC-62.
Holding throughout (test): NCI tumour cell line growth inhibition, 48 h

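A five-concentration, 48-hour dose response in 96-well plates underlies each endpoint, interpolated linearly between surrounding concentrations. Here, GI50 denotes the concentration required for 50% inhibition of growth.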 The source made the active and inactive calls. Cut-off read from the data, not from the text of the source: active = GI50 up to about 1.1 µM and inactive = higher.

For `O=C1NC(c2ccccc2Cl)Nc2ccccc21` (configuration not stated), the GI50 in the assay with BT-549 was 28.4 µM (inactive); in the assay on DU-145, 30.8 µM (inactive); in the assay with HCC 2998, 11.3 µM (inactive); in the assay on HCT-116 it was 7.24 µM (inactive); in the assay on HCT-15 it was 3.9 µM; in the assay on HOP-92 it was 44.4 µM (inactive). The GI50 with KM12 was 3.76 µM (inactive); with MDA-MB-435, 1.65 µM (inactive); in the assay on MDA-N it was 1.47 µM (inactive); in the assay on OVCAR-4 it was 27.5 µM (inactive); with RPMI-8226, 7.73 µM (inactive); with SF-268, 59.7 µM (inactive). Moreover, the GI50 in the assay on SF-295 was 13.9 µM (inactive); in the assay on SK-MEL-2, 6.7 µM (inactive); in the assay on SK-MEL-5, 5.57 µM (inactive); with SNB-75 it was 13.8 µM (inactive); with T47D, 48.5 µM (inactive); in the assay with UACC-257, > 100 µM (inactive). Further, the GI50 in the assay on UACC-62 was 7.14 µM (inactive).
On to `Nc1ccc2c3[nH]c4cc(N)ccc4cc-3nc2c1`, for which the GI50 is 0.984 µM (active) in the assay with BT-549; 0.318 µM (active) in the assay with DU-145; 0.09 µM (active) with HCC 2998; 0.0582 µM (active) with HCT-116; 0.266 µM in the assay with HCT-15; 0.0422 µM (active) in the assay with HOP-92. The GI50 in the assay with KM12 was 0.167 µM (active); in the assay with MDA-MB-435 it was 0.136 µM (active); in the assay with MDA-N, 0.194 µM (active); in the assay with OVCAR-4, 0.283 µM (active); with RPMI-8226, 0.414 µM (active); in the assay on SF-268, 0.232 µM (active). In addition, the GI50 was 0.265 µM (active) in the assay with SF-295; 0.413 µM (active) with SK-MEL-2; 0.237 µM (active) in the assay on SK-MEL-5; 0.12 µM (active) with SNB-75; 0.284 µM (active) in the assay on T47D; 0.172 µM (active) with UACC-257. Moreover, in the assay with UACC-62, the GI50 is 0.194 µM (active).
Take `O=C(NNC(=S)Nc1ccccc1)c1cc(-c2ccccc2)nc2ccccc12`: the GI50 in the assay on BT-549 was 21.6 µM (inactive); in the assay on DU-145, 17 µM (inactive); with HCC 2998 it was 15.5 µM (inactive); in the assay with HCT-116, 14.4 µM (inactive); in the assay with HCT-15, 13.9 µM; in the assay with HOP-92, 15.6 µM (inactive). Moreover, the GI50 in the assay on KM12 was 20.7 µM (inactive); in the assay on MDA-MB-435, 16.5 µM (inactive); in the assay on MDA-N, 18.2 µM (inactive); in the assay with OVCAR-4 it was 17.3 µM (inactive); in the assay on RPMI-8226 it was 6.56 µM (inactive); in the assay with SF-268, 22.9 µM (inactive). Further, the GI50 was 13.1 µM (inactive) with SF-295; 11.1 µM (inactive) in the assay with SK-MEL-2; 13.2 µM (inactive) in the assay with SK-MEL-5; 17.3 µM (inactive) in the assay with SNB-75; 7.4 µM (inactive) with T47D; 19.1 µM (inactive) with UACC-257. Also, in the assay with UACC-62, the GI50 was 15.6 µM (inactive).
As to `NC(=O)N(O)c1cccc(Br)c1`, the GI50 in the assay with BT-549 is > 100 µM (inactive); in the assay with DU-145, > 100 µM (inactive); with HCC 2998, > 100 µM (inactive); with HCT-116 it was > 100 µM (inactive); with HCT-15 it was over 100 µM; in the assay with HOP-92 it was > 100 µM (inactive). The GI50 in the assay with KM12, in the assay on MDA-MB-435, in the assay with MDA-N, in the assay with OVCAR-4, with RPMI-8226 and in the assay on SF-268 was > 100 µM (inactive) in each case. Also, the GI50 is > 100 µM (inactive) with SF-295; 66.5 µM (inactive) in the assay with SK-MEL-2; > 100 µM (inactive) with SK-MEL-5; > 100 µM (inactive) in the assay with SNB-75; > 100 µM (inactive) in the assay with T47D; > 100 µM (inactive) in the assay on UACC-257. For the same molecule, the GI50 with UACC-62 is > 100 µM (inactive).
`N#CC12CC=C(c3ccccc3)N=C1NC(c1ccccc1)=CC2` (configuration not stated): the GI50 in the assay with BT-549 was 40.6 µM (inactive); with DU-145 it was 57.5 µM (inactive); in the assay with HCC 2998, > 100 µM (inactive); with HCT-116, 47 µM (inactive); in the assay on HCT-15, 69.7 µM; in the assay with HOP-92 it was 16 µM (inactive). Further, the GI50 was 51.5 µM (inactive) with KM12; 35.6 µM (inactive) with MDA-MB-435; 37.3 µM (inactive) in the assay on MDA-N; 29.7 µM (inactive) with OVCAR-4; 28.8 µM (inactive) in the assay with RPMI-8226; > 100 µM (inactive) in the assay on SF-268. For the same molecule, the GI50 in the assay with SF-295 is 57.7 µM (inactive); in the assay on SK-MEL-2 it was 56.4 µM (inactive); with SK-MEL-5, 19 µM (inactive); in the assay with SNB-75 it was 49 µM (inactive); in the assay with T47D, 34.7 µM (inactive); with UACC-257, 48.6 µM (inactive). Moreover, in the assay with UACC-62, the GI50 is 86.7 µM (inactive).
As for `O=C(CCCl)NN=C1NCCCCN1`, the GI50 in the assay on BT-549 is > 100 µM (inactive); with DU-145 it was > 100 µM (inactive); in the assay on HCC 2998 it was > 100 µM (inactive); in the assay on HCT-116, > 100 µM (inactive); in the assay with HCT-15, over 100 µM; in the assay with HOP-92, > 100 µM (inactive). The GI50 with KM12, in the assay with MDA-MB-435, with MDA-N, in the assay on OVCAR-4, in the assay on RPMI-8226 and with SF-268 was > 100 µM (inactive) in each case. The GI50 in the assay with SF-295, in the assay with SK-MEL-2, with SK-MEL-5, in the assay with SNB-75, in the assay on T47D and in the assay with UACC-257 was > 100 µM (inactive) each time. In addition, in the assay with UACC-62, the GI50 is > 100 µM (inactive).
As to `CC1=C(/C=C/C(C)=C/C=C/C(C)=C/C(=O)OC2CC(n3cc(F)c(=O)[nH]c3=O)OC2CO)C(C)(C)CCC1` (configuration not stated), the GI50 was 1.58 µM (inactive) with BT-549; 0.476 µM (active) in the assay on DU-145; 1.97 µM (inactive) in the assay with HCC 2998; 0.748 µM (active) with HCT-116; 4.35 µM in the assay with HCT-15; 11.3 µM (inactive) with HOP-92. Also, the GI50 was 12.2 µM (inactive) with KM12; 3.97 µM (inactive) in the assay with MDA-MB-435; 6.82 µM (inactive) in the assay on MDA-N; 6.01 µM (inactive) in the assay with OVCAR-4; 0.254 µM (active) with RPMI-8226; 0.252 µM (active) with SF-268. Further, the GI50 in the assay with SF-295 was 0.148 µM (active); in the assay with SK-MEL-2, 24.9 µM (inactive); in the assay with SK-MEL-5 it was 1.18 µM (inactive); in the assay with SNB-75, 1.07 µM (active); in the assay with T47D, 4.17 µM (inactive); in the assay on UACC-257, 7.91 µM (inactive). Moreover, in the assay on UACC-62, the GI50 is 0.184 µM (active).
With `COC(=O)c1ccccc1/C=C1\Cc2c(ccc3c2CCC3)C1=O`, the GI50 in the assay on BT-549 was > 100 µM (inactive); with DU-145 it was > 100 µM (inactive); in the assay on HCC 2998, > 100 µM (inactive); with HCT-116 it was > 100 µM (inactive); in the assay on HCT-15, over 100 µM; with HOP-92, 85.9 µM (inactive). The GI50 in the assay with KM12, in the assay with MDA-MB-435, in the assay on MDA-N, in the assay on OVCAR-4, with RPMI-8226 and with SF-268 was > 100 µM (inactive) in each case. The GI50 with SF-295 is > 100 µM (inactive); in the assay on SK-MEL-2, 56 µM (inactive); in the assay on SK-MEL-5 it was > 100 µM (inactive); in the assay on SNB-75, 39.1 µM (inactive); in the assay on T47D, > 100 µM (inactive); in the assay with UACC-257, > 100 µM (inactive). In addition, the GI50 in the assay on UACC-62 is > 100 µM (inactive).
